{"source": "the supplement of paper PMC10307832", "assay_in_all_cases": "relative viability (nuclei count vs DMSO), 5 days (fraction); higher = more cells survive", "key": {"[1]": {"test_system": "NCI-H2009", "procedure,_shortened": "(§1)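 For relative viability, nuclei counts in treated wells were divided by those in vehicle wells. Lung cancer cell lines had been pin-tool dosed in 1536-well plates the day after seeding and cultured for 5 days, then fixed and stained in one step (final 0.05% Triton X-100, 1% formaldehyde, 1 ug/ml Hoechst) and imaged at 4×. Doses were one drug alone or a fixed anchor-drug dose plus five library-drug doses (not always all listed) in √10 steps, and values are duplicate-plate medians.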"}, "[2]": {"test_system": "NCI-H322M", "procedure,_shortened": "as §1"}, "[3]": {"test_system": "PC-14", "procedure,_shortened": "as §1"}, "[4]": {"test_system": "SK-LU-1", "procedure,_shortened": "as §1"}, "[5]": {"test_system": "NCI-H1563", "procedure,_shortened": "as §1"}, "[6]": {"test_system": "NCI-H1734", "procedure,_shortened": "as §1"}, "[7]": {"test_system": "NCI-H2085", "procedure,_shortened": "as §1"}, "[8]": {"test_system": "HOP-62", "procedure,_shortened": "as §1"}, "[9]": {"test_system": "NCI-H2126", "procedure,_shortened": "as §1"}, "[10]": {"test_system": "NCI-H1993", "procedure,_shortened": "as §1"}, "[11]": {"test_system": "NCI-H647", "procedure,_shortened": "as §1"}, "[12]": {"test_system": "EMC-BAC-2", "procedure,_shortened": "as §1"}, "[13]": {"test_system": "NCI-H661", "procedure,_shortened": "as §1"}, "[14]": {"test_system": "NCI-H1915", "procedure,_shortened": "as §1"}, "[15]": {"test_system": "H3255", "procedure,_shortened": "as §1"}, "[16]": {"test_system": "NCI-H2023", "procedure,_shortened": "as §1"}, "[17]": {"test_system": "SW 1573", "procedure,_shortened": "as §1"}, "[18]": {"test_system": "LCLC-97TM1", "procedure,_shortened": "as §1"}, "[19]": {"test_system": "NCI-H2347", "procedure,_shortened": "as §1"}, "[20]": {"test_system": "LXF-289", "procedure,_shortened": "as §1"}, "[21]": {"test_system": "EPLC-272H", "procedure,_shortened": "as §1"}}}
{"smiles": "COc1cc2nccc(Oc3ccc(NC(=O)Nc4cc(C)on4)c(Cl)c3)c2cc1OC", "note": "[Tivozanib] + Nc1nc2[nH]cc(CCc3ccc(C(=O)N[C@@H](CCC(=O)O)C(=O)O)cc3)c2c(=O)[nH]1 [Pemetrexed] (partner 0.2 µM)", "values": [{"measurement": "relative viability", "setting": "[1]; first compound 0.005 µM", "value": 0.994}, {"measurement": "relative viability", "setting": "[1]; first compound 0.01581 µM", "value": 1.04}, {"measurement": "relative viability", "setting": "[1]; first compound 0.05 µM", "value": 0.995}, {"measurement": "relative viability", "setting": "[1]; first compound 0.1581 µM", "value": 1.06}, {"measurement": "relative viability", "setting": "[1]; first compound 0.5 µM", "value": 0.933}, {"measurement": "relative viability", "setting": "[2]; first compound 0.005 µM", "value": 0.586}, {"measurement": "relative viability", "setting": "[2]; first compound 0.01581 µM", "value": 0.621}, {"measurement": "relative viability", "setting": "[2]; first compound 0.05 µM", "value": 0.588}, {"measurement": "relative viability", "setting": "[2]; first compound 0.1581 µM", "value": 0.635}, {"measurement": "relative viability", "setting": "[2]; first compound 0.5 µM", "value": 0.602}, {"measurement": "relative viability", "setting": "[3]; first compound 0.005 µM", "value": 0.124}, {"measurement": "relative viability", "setting": "[3]; first compound 0.01581 µM", "value": 0.138}, {"measurement": "relative viability", "setting": "[3]; first compound 0.05 µM", "value": 0.129}, {"measurement": "relative viability", "setting": "[3]; first compound 0.1581 µM", "value": 0.155}, {"measurement": "relative viability", "setting": "[3]; first compound 0.5 µM", "value": 0.115}, {"measurement": "relative viability", "setting": "[4]; first compound 0.005 µM", "value": 1}, {"measurement": "relative viability", "setting": "[4]; first compound 0.01581 µM", "value": 0.928}, {"measurement": "relative viability", "setting": "[4]; first compound 0.05 µM", "value": 0.997}, {"measurement": "relative viability", "setting": "[4]; first compound 0.1581 µM", "value": 0.905}, {"measurement": "relative viability", "setting": "[4]; first compound 0.5 µM", "value": 0.991}, {"measurement": "relative viability", "setting": "[5]; first compound 0.005 µM", "value": 0.657}, {"measurement": "relative viability", "setting": "[5]; first compound 0.01581 µM", "value": 0.887}, {"measurement": "relative viability", "setting": "[5]; first compound 0.05 µM", "value": 0.698}, {"measurement": "relative viability", "setting": "[5]; first compound 0.1581 µM", "value": 0.594}, {"measurement": "relative viability", "setting": "[5]; first compound 0.5 µM", "value": 0.728}, {"measurement": "relative viability", "setting": "[6]; first compound 0.005 µM", "value": 0.426}, {"measurement": "relative viability", "setting": "[6]; first compound 0.01581 µM", "value": 0.39}, {"measurement": "relative viability", "setting": "[6]; first compound 0.05 µM", "value": 0.404}, {"measurement": "relative viability", "setting": "[6]; first compound 0.1581 µM", "value": 0.402}, {"measurement": "relative viability", "setting": "[6]; first compound 0.5 µM", "value": 0.404}, {"measurement": "relative viability", "setting": "[7]; first compound 0.005 µM", "value": 0.925}, {"measurement": "relative viability", "setting": "[7]; first compound 0.01581 µM", "value": 0.964}, {"measurement": "relative viability", "setting": "[7]; first compound 0.05 µM", "value": 0.872}, {"measurement": "relative viability", "setting": "[7]; first compound 0.1581 µM", "value": 0.9}, {"measurement": "relative viability", "setting": "[7]; first compound 0.5 µM", "value": 0.899}, {"measurement": "relative viability", "setting": "[8]; first compound 0.005 µM", "value": 0.353}, {"measurement": "relative viability", "setting": "[8]; first compound 0.01581 µM", "value": 0.301}, {"measurement": "relative viability", "setting": "[8]; first compound 0.05 µM", "value": 0.245}, {"measurement": "relative viability", "setting": "[8]; first compound 0.1581 µM", "value": 0.36}, {"measurement": "relative viability", "setting": "[8]; first compound 0.5 µM", "value": 0.232}, {"measurement": "relative viability", "setting": "[9]; first compound 0.005 µM", "value": 0.692}, {"measurement": "relative viability", "setting": "[9]; first compound 0.01581 µM", "value": 0.684}, {"measurement": "relative viability", "setting": "[9]; first compound 0.05 µM", "value": 0.691}, {"measurement": "relative viability", "setting": "[9]; first compound 0.1581 µM", "value": 0.582}, {"measurement": "relative viability", "setting": "[9]; first compound 0.5 µM", "value": 0.589}, {"measurement": "relative viability", "setting": "[10]; first compound 0.005 µM", "value": 0.572}, {"measurement": "relative viability", "setting": "[10]; first compound 0.01581 µM", "value": 0.467}, {"measurement": "relative viability", "setting": "[10]; first compound 0.05 µM", "value": 0.674}, {"measurement": "relative viability", "setting": "[10]; first compound 0.1581 µM", "value": 0.499}, {"measurement": "relative viability", "setting": "[10]; first compound 0.5 µM", "value": 0.662}, {"measurement": "relative viability", "setting": "[11]; first compound 0.005 µM", "value": 0.155}, {"measurement": "relative viability", "setting": "[11]; first compound 0.01581 µM", "value": 0.207}, {"measurement": "relative viability", "setting": "[11]; first compound 0.05 µM", "value": 0.152}, {"measurement": "relative viability", "setting": "[11]; first compound 0.1581 µM", "value": 0.189}, {"measurement": "relative viability", "setting": "[11]; first compound 0.5 µM", "value": 0.149}, {"measurement": "relative viability", "setting": "[12]; first compound 0.005 µM", "value": 0.463}, {"measurement": "relative viability", "setting": "[12]; first compound 0.01581 µM", "value": 0.465}, {"measurement": "relative viability", "setting": "[12]; first compound 0.05 µM", "value": 0.431}, {"measurement": "relative viability", "setting": "[12]; first compound 0.1581 µM", "value": 0.507}, {"measurement": "relative viability", "setting": "[12]; first compound 0.5 µM", "value": 0.398}, {"measurement": "relative viability", "setting": "[13]; first compound 0.005 µM", "value": 0.887}, {"measurement": "relative viability", "setting": "[13]; first compound 0.01581 µM", "value": 0.928}, {"measurement": "relative viability", "setting": "[13]; first compound 0.05 µM", "value": 0.922}, {"measurement": "relative viability", "setting": "[13]; first compound 0.1581 µM", "value": 0.909}, {"measurement": "relative viability", "setting": "[13]; first compound 0.5 µM", "value": 0.854}, {"measurement": "relative viability", "setting": "[14]; first compound 0.005 µM", "value": 0.518}, {"measurement": "relative viability", "setting": "[14]; first compound 0.01581 µM", "value": 0.467}, {"measurement": "relative viability", "setting": "[14]; first compound 0.05 µM", "value": 0.504}, {"measurement": "relative viability", "setting": "[14]; first compound 0.1581 µM", "value": 0.468}, {"measurement": "relative viability", "setting": "[14]; first compound 0.5 µM", "value": 0.46}, {"measurement": "relative viability", "setting": "[15]; first compound 0.005 µM", "value": 0.545}, {"measurement": "relative viability", "setting": "[15]; first compound 0.01581 µM", "value": 0.563}, {"measurement": "relative viability", "setting": "[15]; first compound 0.05 µM", "value": 0.583}, {"measurement": "relative viability", "setting": "[15]; first compound 0.1581 µM", "value": 0.55}, {"measurement": "relative viability", "setting": "[15]; first compound 0.5 µM", "value": 0.547}, {"measurement": "relative viability", "setting": "[16]; first compound 0.005 µM", "value": 0.405}, {"measurement": "relative viability", "setting": "[16]; first compound 0.01581 µM", "value": 0.216}, {"measurement": "relative viability", "setting": "[16]; first compound 0.05 µM", "value": 0.255}, {"measurement": "relative viability", "setting": "[16]; first compound 0.1581 µM", "value": 0.224}, {"measurement": "relative viability", "setting": "[16]; first compound 0.5 µM", "value": 0.211}, {"measurement": "relative viability", "setting": "[17]; first compound 0.005 µM", "value": 0.761}, {"measurement": "relative viability", "setting": "[17]; first compound 0.01581 µM", "value": 0.766}, {"measurement": "relative viability", "setting": "[17]; first compound 0.05 µM", "value": 0.805}, {"measurement": "relative viability", "setting": "[17]; first compound 0.1581 µM", "value": 0.666}, {"measurement": "relative viability", "setting": "[17]; first compound 0.5 µM", "value": 0.775}, {"measurement": "relative viability", "setting": "[18]; first compound 0.005 µM", "value": 0.183}, {"measurement": "relative viability", "setting": "[18]; first compound 0.01581 µM", "value": 0.178}, {"measurement": "relative viability", "setting": "[18]; first compound 0.05 µM", "value": 0.157}, {"measurement": "relative viability", "setting": "[18]; first compound 0.1581 µM", "value": 0.172}, {"measurement": "relative viability", "setting": "[18]; first compound 0.5 µM", "value": 0.148}, {"measurement": "relative viability", "setting": "[19]; first compound 0.005 µM", "value": 0.4}, {"measurement": "relative viability", "setting": "[19]; first compound 0.01581 µM", "value": 0.458}, {"measurement": "relative viability", "setting": "[19]; first compound 0.05 µM", "value": 0.388}, {"measurement": "relative viability", "setting": "[19]; first compound 0.1581 µM", "value": 0.427}, {"measurement": "relative viability", "setting": "[19]; first compound 0.5 µM", "value": 0.487}, {"measurement": "relative viability", "setting": "[20]; first compound 0.005 µM", "value": 0.853}, {"measurement": "relative viability", "setting": "[20]; first compound 0.01581 µM", "value": 0.9}, {"measurement": "relative viability", "setting": "[20]; first compound 0.05 µM", "value": 0.929}, {"measurement": "relative viability", "setting": "[20]; first compound 0.1581 µM", "value": 1.04}, {"measurement": "relative viability", "setting": "[20]; first compound 0.5 µM", "value": 0.887}, {"measurement": "relative viability", "setting": "[21]; first compound 0.005 µM", "value": 0.337}, {"measurement": "relative viability", "setting": "[21]; first compound 0.01581 µM", "value": 0.317}, {"measurement": "relative viability", "setting": "[21]; first compound 0.05 µM", "value": 0.335}, {"measurement": "relative viability", "setting": "[21]; first compound 0.1581 µM", "value": 0.284}, {"measurement": "relative viability", "setting": "[21]; first compound 0.5 µM", "value": 0.288}]}
